pKi: −log10 of the molar value.
molecular target: hCA II (Homo sapiens, UniProt P00918); experiment: stopped-flow CA catalysed CO2 hydration assay, hCA II; conditions: not given

Row | pKi | SMILES | hCA II inhibition, in words
1 | < 5.00 | COc1cc(-n2nc(C)cc2C)ccc1S(N)(=O)=O [Compound 7i, 4-(3,5-Dimethyl-^1H-pyrazol-1-yl)-2-methoxybenzenesulfonamide] | 
2 | < 5.00 | Cc1ccc(-n2nc(C)c(S(N)(=O)=O)c2C)cc1S(N)(=O)=O [Compound 9d, 3,5-Dimethyl-1-(4-methyl-3-sulfamoylphenyl)-^1H-pyrazole-4-sulfonamide] | 
3 | 8.70 | Cc1cc(-n2nc(C)c(S(N)(=O)=O)c2C)ccc1S(N)(=O)=O [Compound 9f, 3,5-Dimethyl-1-(3-methyl-4-sulfamoylphenyl)-^1H-pyrazole-4-sulfonamide] | 
4 | 7.68 | Cc1nn(-c2cccc(S(N)(=O)=O)c2)c(C)c1S(N)(=O)=O [Compound 9a, 3,5-Dimethyl-1-(3-sulfamoylphenyl)-^1H-pyrazole-4-sulfonamide] | 
5 | 7.40 | Cc1nn(-c2ccc(Cl)c(S(N)(=O)=O)c2)c(C)c1S(N)(=O)=O [Compound 9m, 1-(4-Chloro-3-sulfamoylphenyl)-3,5-dimethyl-^1H-pyrazole-4-sulfonamide] | 
6 | 5.58 | Cc1nn(-c2ccccc2Cl)c(C)c1S(N)(=O)=O [Compound 8i, 1-(2-Chlorophenyl)-3,5-dimethyl-^1H-pyrazole-4-sulfonamide] | 
7 | 6.42 | Cc1cc(C)n(-c2cc(S(N)(=O)=O)ccc2C)n1 [Compound 7e, 3-(3,5-Dimethyl-^1H-pyrazol-1-yl)-4-methylbenzenesulfonamide] | 
8 |  | NS(=O)(=O)c1cnn(-c2cccc(Cl)c2)c1 [Compound 8h, (3-Chlorophenyl)-^1H-pyrazole-4-sulfonamide] | good hCA I, II and VII inhibition activity
9 | 8.40 | Cc1cc(C)n(-c2ccc(S(N)(=O)=O)cc2)n1 [Compound 7o, 4-(3,5-Dimethyl-^1H-pyrazol-1-yl)benzenesulfonamide] | 

same assay, conditions: read-out: hCA Ki (μM) hCA II; recombinant enzyme, stopped-flow CO2 hydration, 15 min preincubation, pH 8.3

Row | SMILES | Ki
10 | Cc1cc(-n2cc(S(N)(=O)=O)cn2)ccc1S(N)(=O)=O [Compound 9g, 1-(3-Methyl-4-sulfamoylphenyl)-^1H-pyrazole-4-sulfonamide] | 0.049 µM
11 | COc1ccc(-n2cccn2)cc1S(N)(=O)=O [Compound 7h] | > 10 µM
12 | NS(=O)(=O)c1cnn(-c2cccc(Cl)c2)c1 [Compound 8h, (3-Chlorophenyl)-^1H-pyrazole-4-sulfonamide] | 0.14 µM
13 | Cc1ccc(S(N)(=O)=O)cc1-n1cccn1 [Compound 7f] | 0.059 µM

molecular target: hCA I (Homo sapiens, UniProt P00915); experiment: stopped-flow CA catalysed CO2 hydration assay, hCA I; conditions: not given
Sequence (P00915 whole entry): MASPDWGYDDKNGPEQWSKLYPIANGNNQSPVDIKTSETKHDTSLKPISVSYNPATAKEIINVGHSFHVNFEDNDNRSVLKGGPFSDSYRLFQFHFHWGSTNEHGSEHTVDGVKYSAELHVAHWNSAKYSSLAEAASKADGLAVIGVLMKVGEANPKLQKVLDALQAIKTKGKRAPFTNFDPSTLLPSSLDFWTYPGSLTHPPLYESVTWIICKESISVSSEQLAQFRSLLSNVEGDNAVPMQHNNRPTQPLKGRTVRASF

Row | pKi | SMILES | hCA I inhibition, in words
14 | 5.05 | COc1cc(-n2nc(C)cc2C)ccc1S(N)(=O)=O [Compound 7i, 4-(3,5-Dimethyl-^1H-pyrazol-1-yl)-2-methoxybenzenesulfonamide] | 
15 | < 5.00 | Cc1ccc(-n2nc(C)c(S(N)(=O)=O)c2C)cc1S(N)(=O)=O [Compound 9d, 3,5-Dimethyl-1-(4-methyl-3-sulfamoylphenyl)-^1H-pyrazole-4-sulfonamide] | 
16 | 6.33 | Cc1cc(-n2nc(C)c(S(N)(=O)=O)c2C)ccc1S(N)(=O)=O [Compound 9f, 3,5-Dimethyl-1-(3-methyl-4-sulfamoylphenyl)-^1H-pyrazole-4-sulfonamide] | 
17 | 6.30 | Cc1nn(-c2cccc(S(N)(=O)=O)c2)c(C)c1S(N)(=O)=O [Compound 9a, 3,5-Dimethyl-1-(3-sulfamoylphenyl)-^1H-pyrazole-4-sulfonamide] | 
18 | 6.05 | Cc1nn(-c2ccc(Cl)c(S(N)(=O)=O)c2)c(C)c1S(N)(=O)=O [Compound 9m, 1-(4-Chloro-3-sulfamoylphenyl)-3,5-dimethyl-^1H-pyrazole-4-sulfonamide] | 
19 | 6.21 | Cc1nn(-c2ccccc2Cl)c(C)c1S(N)(=O)=O [Compound 8i, 1-(2-Chlorophenyl)-3,5-dimethyl-^1H-pyrazole-4-sulfonamide] | 
20 | 5.38 | Cc1cc(C)n(-c2cc(S(N)(=O)=O)ccc2C)n1 [Compound 7e, 3-(3,5-Dimethyl-^1H-pyrazol-1-yl)-4-methylbenzenesulfonamide] | 
21 |  | NS(=O)(=O)c1cnn(-c2cccc(Cl)c2)c1 [Compound 8h, (3-Chlorophenyl)-^1H-pyrazole-4-sulfonamide] | good hCA I, II and VII inhibition activity
22 | 6.34 | Cc1cc(C)n(-c2ccc(S(N)(=O)=O)cc2)n1 [Compound 7o, 4-(3,5-Dimethyl-^1H-pyrazol-1-yl)benzenesulfonamide] | 

same assay, conditions: read-out: hCA Ki (μM) hCA I; recombinant enzyme, stopped-flow CO2 hydration, 15 min preincubation, pH 8.3

Row | SMILES | Ki
23 | Cc1cc(-n2cc(S(N)(=O)=O)cn2)ccc1S(N)(=O)=O [Compound 9g, 1-(3-Methyl-4-sulfamoylphenyl)-^1H-pyrazole-4-sulfonamide] | 0.1 µM
24 | COc1ccc(-n2cccn2)cc1S(N)(=O)=O [Compound 7h] | > 10 µM
25 | NS(=O)(=O)c1cnn(-c2cccc(Cl)c2)c1 [Compound 8h, (3-Chlorophenyl)-^1H-pyrazole-4-sulfonamide] | 0.54 µM
26 | Cc1ccc(S(N)(=O)=O)cc1-n1cccn1 [Compound 7f] | 1.23 µM

test system: not given; experiment: not given; conditions: not given

Row | melting point | SMILES
27 | 205 to 207 °C | Cc1cc(-n2cc(S(N)(=O)=O)cn2)ccc1S(N)(=O)=O [Compound 9g, 1-(3-Methyl-4-sulfamoylphenyl)-^1H-pyrazole-4-sulfonamide]
28 | 156 to 158 °C | COc1cc(-n2nc(C)cc2C)ccc1S(N)(=O)=O [Compound 7i, 4-(3,5-Dimethyl-^1H-pyrazol-1-yl)-2-methoxybenzenesulfonamide]
29 | 143 to 146 °C | Cc1cc(-n2nc(C)c(S(N)(=O)=O)c2C)ccc1S(N)(=O)=O [Compound 9f, 3,5-Dimethyl-1-(3-methyl-4-sulfamoylphenyl)-^1H-pyrazole-4-sulfonamide]
30 | 223 to 225 °C | Cc1nn(-c2cccc(S(N)(=O)=O)c2)c(C)c1S(N)(=O)=O [Compound 9a, 3,5-Dimethyl-1-(3-sulfamoylphenyl)-^1H-pyrazole-4-sulfonamide]
31 | 241 to 243 °C | Cc1nn(-c2ccc(Cl)c(S(N)(=O)=O)c2)c(C)c1S(N)(=O)=O [Compound 9m, 1-(4-Chloro-3-sulfamoylphenyl)-3,5-dimethyl-^1H-pyrazole-4-sulfonamide]
32 | 204 to 206 °C | Cc1nn(-c2ccccc2Cl)c(C)c1S(N)(=O)=O [Compound 8i, 1-(2-Chlorophenyl)-3,5-dimethyl-^1H-pyrazole-4-sulfonamide]
33 | 112 to 114 °C | Cc1cc(C)n(-c2cc(S(N)(=O)=O)ccc2C)n1 [Compound 7e, 3-(3,5-Dimethyl-^1H-pyrazol-1-yl)-4-methylbenzenesulfonamide]

molecular target: hCA IV (Homo sapiens, UniProt P22748); experiment: stopped-flow CA catalysed CO2 hydration assay, hCA IV; conditions: not given
Sequence (P22748 19-312): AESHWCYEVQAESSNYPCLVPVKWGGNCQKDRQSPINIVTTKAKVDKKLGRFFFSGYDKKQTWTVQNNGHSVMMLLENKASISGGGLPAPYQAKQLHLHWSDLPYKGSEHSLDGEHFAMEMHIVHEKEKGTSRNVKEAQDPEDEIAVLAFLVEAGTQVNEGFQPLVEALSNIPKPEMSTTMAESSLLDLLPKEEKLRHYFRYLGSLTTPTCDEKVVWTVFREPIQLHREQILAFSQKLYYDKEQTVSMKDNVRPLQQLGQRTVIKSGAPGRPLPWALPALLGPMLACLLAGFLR

Row | pKi | SMILES | hCA IV inhibition, in words
34 |  | COc1ccc(-n2cccn2)cc1S(N)(=O)=O [Compound 7h] | loss of hCA IV inhibition activity
35 | < 5.00 | COc1cc(-n2nc(C)cc2C)ccc1S(N)(=O)=O [Compound 7i, 4-(3,5-Dimethyl-^1H-pyrazol-1-yl)-2-methoxybenzenesulfonamide] | 
36 | 7.66 | Cc1cc(-n2nc(C)c(S(N)(=O)=O)c2C)ccc1S(N)(=O)=O [Compound 9f, 3,5-Dimethyl-1-(3-methyl-4-sulfamoylphenyl)-^1H-pyrazole-4-sulfonamide] | 
37 | 7.19 | Cc1nn(-c2cccc(S(N)(=O)=O)c2)c(C)c1S(N)(=O)=O [Compound 9a, 3,5-Dimethyl-1-(3-sulfamoylphenyl)-^1H-pyrazole-4-sulfonamide] | 
38 | 7.11 | Cc1nn(-c2ccc(Cl)c(S(N)(=O)=O)c2)c(C)c1S(N)(=O)=O [Compound 9m, 1-(4-Chloro-3-sulfamoylphenyl)-3,5-dimethyl-^1H-pyrazole-4-sulfonamide] | 
39 | 5.14 | Cc1nn(-c2ccccc2Cl)c(C)c1S(N)(=O)=O [Compound 8i, 1-(2-Chlorophenyl)-3,5-dimethyl-^1H-pyrazole-4-sulfonamide] | 
40 | < 5.00 | Cc1cc(C)n(-c2cc(S(N)(=O)=O)ccc2C)n1 [Compound 7e, 3-(3,5-Dimethyl-^1H-pyrazol-1-yl)-4-methylbenzenesulfonamide] | 
41 | 7.08 | Cc1cc(C)n(-c2ccc(S(N)(=O)=O)cc2)n1 [Compound 7o, 4-(3,5-Dimethyl-^1H-pyrazol-1-yl)benzenesulfonamide] | 

same assay, conditions: read-out: hCA Ki (μM) hCA IV; recombinant enzyme, stopped-flow CO2 hydration, 15 min preincubation, pH 8.3

Row | SMILES | Ki
42 | Cc1cc(-n2cc(S(N)(=O)=O)cn2)ccc1S(N)(=O)=O [Compound 9g, 1-(3-Methyl-4-sulfamoylphenyl)-^1H-pyrazole-4-sulfonamide] | 5.8 µM
43 | COc1ccc(-n2cccn2)cc1S(N)(=O)=O [Compound 7h] | > 10 µM
44 | NS(=O)(=O)c1cnn(-c2cccc(Cl)c2)c1 [Compound 8h, (3-Chlorophenyl)-^1H-pyrazole-4-sulfonamide] | 3.74 µM
45 | Cc1ccc(S(N)(=O)=O)cc1-n1cccn1 [Compound 7f] | > 10 µM

molecular target: hCA VII (Homo sapiens, UniProt P43166); experiment: stopped-flow CA catalysed CO2 hydration assay, hCA VII; conditions: not given
Sequence (P43166 whole entry): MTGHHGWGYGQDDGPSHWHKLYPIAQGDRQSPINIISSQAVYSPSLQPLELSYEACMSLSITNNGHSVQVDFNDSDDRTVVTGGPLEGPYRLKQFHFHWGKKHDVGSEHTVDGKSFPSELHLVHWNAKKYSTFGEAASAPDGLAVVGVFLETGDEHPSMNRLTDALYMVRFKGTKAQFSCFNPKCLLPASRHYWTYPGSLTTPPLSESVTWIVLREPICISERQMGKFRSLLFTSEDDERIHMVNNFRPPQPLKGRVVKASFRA

Row | pKi | SMILES | hCA VII inhibition, in words
46 | < 5.00 | COc1cc(-n2nc(C)cc2C)ccc1S(N)(=O)=O [Compound 7i, 4-(3,5-Dimethyl-^1H-pyrazol-1-yl)-2-methoxybenzenesulfonamide] | 
47 | < 5.00 | Cc1ccc(-n2nc(C)c(S(N)(=O)=O)c2C)cc1S(N)(=O)=O [Compound 9d, 3,5-Dimethyl-1-(4-methyl-3-sulfamoylphenyl)-^1H-pyrazole-4-sulfonamide] | 
48 | 7.72 | Cc1cc(-n2nc(C)c(S(N)(=O)=O)c2C)ccc1S(N)(=O)=O [Compound 9f, 3,5-Dimethyl-1-(3-methyl-4-sulfamoylphenyl)-^1H-pyrazole-4-sulfonamide] | 
49 | 6.59 | Cc1nn(-c2cccc(S(N)(=O)=O)c2)c(C)c1S(N)(=O)=O [Compound 9a, 3,5-Dimethyl-1-(3-sulfamoylphenyl)-^1H-pyrazole-4-sulfonamide] | 
50 | 6.19 | Cc1nn(-c2ccc(Cl)c(S(N)(=O)=O)c2)c(C)c1S(N)(=O)=O [Compound 9m, 1-(4-Chloro-3-sulfamoylphenyl)-3,5-dimethyl-^1H-pyrazole-4-sulfonamide] | 
51 | < 5.00 | Cc1nn(-c2ccccc2Cl)c(C)c1S(N)(=O)=O [Compound 8i, 1-(2-Chlorophenyl)-3,5-dimethyl-^1H-pyrazole-4-sulfonamide] | 
52 | 6.71 | Cc1cc(C)n(-c2cc(S(N)(=O)=O)ccc2C)n1 [Compound 7e, 3-(3,5-Dimethyl-^1H-pyrazol-1-yl)-4-methylbenzenesulfonamide] | 
53 |  | NS(=O)(=O)c1cnn(-c2cccc(Cl)c2)c1 [Compound 8h, (3-Chlorophenyl)-^1H-pyrazole-4-sulfonamide] | good hCA I, II and VII inhibition activity
54 | 7.77 | Cc1cc(C)n(-c2ccc(S(N)(=O)=O)cc2)n1 [Compound 7o, 4-(3,5-Dimethyl-^1H-pyrazol-1-yl)benzenesulfonamide] | 

same assay, conditions: read-out: hCA Ki (μM) hCA VII; recombinant enzyme, stopped-flow CO2 hydration, 15 min preincubation, pH 8.3

Row | SMILES | Ki
55 | Cc1cc(-n2cc(S(N)(=O)=O)cn2)ccc1S(N)(=O)=O [Compound 9g, 1-(3-Methyl-4-sulfamoylphenyl)-^1H-pyrazole-4-sulfonamide] | 0.005 µM
56 | COc1ccc(-n2cccn2)cc1S(N)(=O)=O [Compound 7h] | > 10 µM
57 | NS(=O)(=O)c1cnn(-c2cccc(Cl)c2)c1 [Compound 8h, (3-Chlorophenyl)-^1H-pyrazole-4-sulfonamide] | 0.24 µM
58 | Cc1ccc(S(N)(=O)=O)cc1-n1cccn1 [Compound 7f] | 0.059 µM

— publication PMC6445164, “Primary mono- and bis-sulfonamides obtained via regiospecific sulfochlorination of N-arylpyrazoles: inhibition profile against a panel of human carbonic anhydrases” (Journal of Enzyme Inhibition and Medicinal Chemistry, 2017)
